ChEMBL document CHEMBL1141709, “Optimization of small molecule agonists of the thrombopoietin (Tpo) receptor derived from a benzo[a]carbazole hit scaffold” (Bioorg Med Chem Lett, 2008)

Experiments:
[1] = molecular target: T1, Thrombopoietin receptor (Homo sapiens) (UniProt P40238); test: Agonist activity at human thrombopoietin receptor expressed in mouse Ba/F3 cells in presence of 1 mM Zinc by kinase activation based reporter gene assay relative to 30 ng/mL thrombopoietin; assay type: functional, cell-based; conditions: BaF3
T1 sequence (whole entry): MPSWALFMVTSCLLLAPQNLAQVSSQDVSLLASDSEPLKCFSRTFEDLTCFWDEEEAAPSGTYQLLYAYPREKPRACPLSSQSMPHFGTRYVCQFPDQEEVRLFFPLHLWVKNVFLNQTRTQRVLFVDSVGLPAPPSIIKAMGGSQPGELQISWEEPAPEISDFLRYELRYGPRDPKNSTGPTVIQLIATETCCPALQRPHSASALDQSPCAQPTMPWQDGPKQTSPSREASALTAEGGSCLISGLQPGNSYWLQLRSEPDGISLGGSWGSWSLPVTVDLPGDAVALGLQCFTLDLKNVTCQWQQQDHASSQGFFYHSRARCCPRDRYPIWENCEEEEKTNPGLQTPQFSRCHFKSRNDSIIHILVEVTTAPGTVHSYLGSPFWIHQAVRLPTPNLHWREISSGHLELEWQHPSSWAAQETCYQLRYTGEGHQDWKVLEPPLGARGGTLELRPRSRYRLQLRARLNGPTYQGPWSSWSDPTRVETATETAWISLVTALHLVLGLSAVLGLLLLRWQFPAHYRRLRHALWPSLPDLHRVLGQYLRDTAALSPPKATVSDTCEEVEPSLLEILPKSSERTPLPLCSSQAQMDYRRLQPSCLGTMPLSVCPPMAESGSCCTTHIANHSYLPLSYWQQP

[2] = molecular target: T1, Thrombopoietin receptor (Homo sapiens); test: Agonist activity at human thrombopoietin receptor expressed in mouse Ba/F3 cells in presence of 1 mM Zinc by kinase activation based reporter gene assay; assay type: functional, cell-based; conditions: BaF3
[3] = molecular target: T1, Thrombopoietin receptor (Homo sapiens); test: Agonist activity at human thrombopoietin receptor expressed in mouse Ba/F3 cells by kinase activation based reporter gene assay relative to 30 ng/mL thrombopoietin; assay type: functional, cell-based; conditions: BaF3
[4] = molecular target: T2, Thrombopoietin receptor (Homo sapiens, UniProt P40238); test: Agonist activity at human thrombopoietin receptor expressed in mouse Ba/F3 cells by kinase activation based reporter gene assay; assay type: functional, cell-based, BaF3
T2 sequence (P40238 whole entry): T1 sequence (whole entry)

[5] = Thrombopoietic activity in human megakaryocytes assessed as induction of cell differentiation by CFU-mega assay; assay type: functional, cell-based

Row | SMILES | Efficacy [1] [%] | EC50 [2] [nM] | Efficacy [3] [%] | EC50 [4] [nM] | EC50 [5] [nM]
1 | CCCCc1ccc(-c2ccc3c4c([nH]c3c2F)-c2ccc(NC(N)=O)cc2C4)cc1 | 128 | 124 |  |  | 
2 | CCCCc1ccc(-c2ccc3c(C(C)C)c(-c4ccc(C(=O)O)c(O)c4)[nH]c3c2F)cc1 |  |  | 70 | > 1000 | 
3 | CCCCc1ccc(-c2ccc3c4c([nH]c3c2F)-c2cc(NC(C)=O)c(C(=O)O)cc2C4)cc1 |  |  | 90 | 376 | 
4 | CCCCc1ccc(-c2ccc3cc(-c4ccc(C(N)=O)cc4)[nH]c3c2F)cc1 |  |  | 81 | 160 | 
5 | CCCCc1ccc(-c2ccc3c4c([nH]c3c2F)-c2ccc(NC(=O)CO)cc2C4)cc1 | 98 | 87 |  |  | 
6 | CCCCc1ccc(-c2ccc3c4c([nH]c3c2F)-c2cc(N)c(C(=O)O)cc2C4)cc1 | 70 | 341 |  |  | 
7 | CCCCc1ccc(-c2ccc3cc(-c4ccc(C(=O)O)cc4)[nH]c3c2F)cc1 |  |  | 112 | 117 | 
8 | Cc1cc(-c2ccc3c4c([nH]c3c2F)-c2ccc(C(N)=O)cc2C4)ccc1F |  |  | 105 | 277 | 
9 | Cc1cc(-c2ccc3c4c([nH]c3c2F)-c2ccc(C(N)=O)cc2COC4=O)ccc1F |  |  | 0 | > 30000 | 
10 | CCCCc1ccc(-c2ccc3c(CC)c(-c4ccc(C(=O)O)c(O)c4)[nH]c3c2F)cc1 |  |  | 97 | 228 | 
11 | CCCCc1ccc(-c2ccc3c4c([nH]c3c2)-c2ccc(C(=O)O)cc2S(=O)(=O)C4)cc1 |  |  | 115 | 449 | 
12 | CCCCc1ccc(-c2ccc3nc(-c4ccc(C(=O)O)cc4)[nH]c3c2)cc1 |  |  | 83 | 1260 | 
13 | CCCCc1ccc(-c2ccc3c4c([nH]c3c2F)-c2ccc(NS(C)(=O)=O)cc2C4)cc1 | 95 | 166 |  |  | 
14 | CCCCc1ccc(-c2ccc3c4c([nH]c3c2)-c2ccc(C(=O)O)cc2CCC4)cc1 | 71 | 332 |  |  | 
15 | CCCCc1ccc(-c2ccc3nc(-c4ccc(C(=O)O)c(O)c4)[nH]c3c2)cc1 |  |  | 121 | 179 | 
16 | CCCCc1ccc(-c2ccc3c4c([nH]c3c2)-c2ccc(C(=O)O)cc2C4)cc1 |  |  | 91 | 160 | 
17 | Cc1cc(-c2ccc3c4c([nH]c3c2F)-c2ccc(C(N)=O)cc2OC4)ccc1F |  |  | 83 | 1430 | 

The next lines start with the values.

Row | Efficacy [1] [%] | EC50 [2] [nM] | Efficacy [3] [%] | EC50 [4] [nM] | EC50 [5] [nM] | SMILES
18 |  |  | 144 | 26 |  | Cc1cc(-c2ccc3c4c([nH]c3c2F)-c2ccc(C(=O)O)cc2C4)ccc1F
19 |  |  | 118 | 111 |  | CCCCc1ccc(-c2ccc3c4c([nH]c3c2F)-c2ccc(C(=O)O)cc2C4(C)C)cc1
20 |  |  | 151 | 37 |  | CCCCc1ccc(-c2ccc3c4c([nH]c3c2F)-c2ccc(C(=O)O)cc2C4)cc1
21 |  |  | 141 | 51 |  | CCCCc1ccc(-c2ccc3cc(-c4ccc(C(=O)O)c(O)c4)[nH]c3c2F)cc1
22 |  |  | 118 | 86 |  | CCCCc1ccc(-c2ccc3c4c([nH]c3c2)-c2ccc(C(N)=O)cc2C4)cc1
23 |  |  | 117 | 25 | 300 | CCCCc1ccc(-c2ccc3c4c([nH]c3c2F)-c2ccc(NC(C)=O)cc2C4)cc1
24 |  |  | 127 | 38 |  | CC1=NN(c2ccc(C)c(C)c2)C(=O)/C1=N\Nc1cccc(-c2cccc(C(=O)O)c2)c1O [ELTROMBOPAG]
25 |  |  | 110 | 21 |  | CCCCc1ccc(-c2ccc3c4c([nH]c3c2F)-c2ccc(NC(=O)C(=O)O)cc2C4)cc1
26 |  |  | 119 | 116 |  | CCCCc1ccc(-c2ccc3c(C)c(-c4ccc(C(=O)O)c(O)c4)[nH]c3c2F)cc1
27 |  |  |  | 111 |  | CCCCc1ccc(-c2ccc3c4c([nH]c3c2)-c2ccc(C(=O)O)cc2CC4)cc1
